{"source": "patent US20140161720A1", "about": "“TREATMENT OF ANGIOGENIC- OR VASCULAR-ASSOCIATED DISEASES” (THE GENERAL HOSPITAL CORPORATION, priority 2011, published 2014)", "key": {"IDO": {"target": "T1, IDO (Homo sapiens, UniProt P14902)", "T1 construct": "expressed in transfected cells; host or cells: HEK 293", "T1 sequence (P14902 whole entry)": "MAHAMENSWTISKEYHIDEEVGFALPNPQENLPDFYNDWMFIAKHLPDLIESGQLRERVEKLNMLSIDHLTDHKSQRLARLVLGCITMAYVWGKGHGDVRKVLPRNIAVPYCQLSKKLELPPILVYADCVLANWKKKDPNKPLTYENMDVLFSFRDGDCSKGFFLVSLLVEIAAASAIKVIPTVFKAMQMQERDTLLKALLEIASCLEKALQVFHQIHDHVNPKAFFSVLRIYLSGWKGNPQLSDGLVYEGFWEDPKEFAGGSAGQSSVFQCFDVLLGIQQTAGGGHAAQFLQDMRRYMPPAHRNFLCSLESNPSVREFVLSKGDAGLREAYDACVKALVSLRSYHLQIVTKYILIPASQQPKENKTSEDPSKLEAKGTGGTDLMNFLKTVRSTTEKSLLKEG", "test": "IDO activity in HEK 293 cells expressing IDO (kynurenine, spectrophotometric)", "type": "cell-based", "conditions": "kynurenine readout, 10-dose threefold dilutions", "description": "The IDO activity was analyzed by the presence of kynurenine with a spectrophotometric assay. DAL was tested in a 10-dose IC50 mode with threefold serial dilutions (0.1 μM, 0.3 μM, 0.9 μM, 2.7 μM, 8.1 μM, 24.3 μM, 72.9 μM, 218.7 μM, 656 μM and 2000 μM). […] DAL binds concurrently with the tryptophan substrate (Trp) and prevents the closure of the binding site lid that is critical for the reaction catalysis.\nTo determine whether DAL is an immuno-modulator, the effect of DAL on IDO activity was measured. To monitor IDO enzymatic activity, HEK 293 cells were engineered to express IDO and treated with DAL in a 10-dose IC50 mode with threefold serial dilutions. The IDO activity was analyzed by the presence of kynurenine (the first stable catabolite downstream of IDO) with a spectrophotometric assay (Katz et al., 2008; Littlejohn et al., 2000). […] Because DAL inhibits recombinant purified IDO in the enzymatic assay, it is likely that DAL physically interacts with IDO1, forming a complex that represses IDO1 activity. To elucidate a possible structural basis for this inhibition, comparative modeling and molecular docking were used (FIGS. 9A-9D). […] It was therefore assessed that if lid closure may be a critical step for the efficient reaction catalysis by IDO. […]"}, "Rac1": {"tested_on": "Rac1", "test": "Rac1 protein level by western blot in HUVECs", "type": "cell-based, human", "conditions": "HUVEC, 10 μM for 24 hours", "description": "HUVEC cells were treated with 10 μM of DAL for 24 hours and then lysed. A western blot with anti-human Rac1 antibody is shown on top panel while the bottom panel represents a loading control. […] To enhance ubiquitination events, HUVEC cells were pretreated with the proteasome inhibitors lactacystin (2.5 mM) or MG-132 (0.2 mM) for one hour and subsequently treated with DAL (10 μM) of DAL for 24 hours. Duolink in situ was used for the detection of ubiquitinated Rac1 in DAL treated and untreated HUVEC cells. For the two Duolink PLA probes, primary mouse antibodies raised against human Rac1 and primary rabbit anti-ubiquitin were used. Fluorescent spots represent ubiquitinated Rac1. The nuclei with additionally stained DAPI.\nHowever, protein levels of Rac1 were reduced after DAL treatment (FIG. 6B). Next, it was assessed whether DAL can enhance Rac1 ubiquitination and therefore promote or speed up degradation (31-34). For the detection of Rac1 ubiquitination in HUVECs, Rac1-ubiquitin binding in situ was identified using a Duolink molecular proximity assay. In this assay, molecules thought to interact are targeted with fluorescent antibodies in situ, and individual interactions generate a signal detectable by microscopy only if secondary antibodies are located in close proximity to each other. […]"}}, "note": "“Also recorded” adds a separate entry of the source."}
{"molecule": "CC1(C)C=CC2=C(O1)C(=O)c1ccccc1C2=O", "note": "[DAL, dehydro-alpha-lapachone]", "values": [{"measurement": "IC50", "setting": "IDO", "value": "~300", "unit": "nM"}, {"measurement": "protein levels of Rac1", "setting": "Rac1", "value": "reduced; also recorded: decreases"}]}
